The values below come from PubChem BioAssay AID743348 (Broad Institute, 2014).

Active and inactive are the calls of the source.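 How the source made its calls: active means AC50 for ATP loss at or below twice the top valid dose tested, with the signal falling; inconclusive means flat fit showing moderate loss, or a poor-quality fit; inactive means the rest, including rises in signal.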

Tested on in one test: not listed separately
Nature of the test: HepG2 cytotoxicity, dose response, cytotoxicity control, cell-based, ATP luminescence, dry powder, set 10 (AID 743348). The note with it: HepG2 viability, CellTiter-Glo ATP luminescence, 72 h; at 26 µM (top of the series). (In general: ATP-based viability assays read luminescence as a measure of living cells.)
As to `COc1cc2c(cc1C(=O)N1CCN(c3ccc(C(C)=O)cc3)CC1)OCO2`, the activity change, negative = cytotoxicity is 7.72% (inactive).
Same read-out and setting: next, `CC(=O)c1ccc(N2CCN(C(=O)c3cc(Cl)c4c(c3)OCO4)CC2)cc1`: 6.73% (inactive); `N#Cc1ccc(N2CCN(C(=O)c3ccc4c(c3)OCO4)CC2)cc1`: -5.11% (inactive).
Take `CC(=O)c1ccc(N2CCN(C(=O)Nc3ccc4c(c3)OCO4)CC2)cc1`: the activity change, negative = cytotoxicity is -12% (inactive).
On the same count and under the same terms, then `COc1ccc(C(=O)N2CCN(c3ccc(C(C)=O)cc3)CC2)cc1OC`, with 9.73% (inactive); and `CC(=O)c1ccc(N2CCN(C(=O)c3ccc4c(c3C)OCO4)CC2)cc1`, with 0.898% (inactive).
Still for that read-out and setting: next, `COc1cc(C(=O)N2CCN(c3ccc(C(C)=O)cc3)CC2)cc2c1OCO2`: 12% (inactive); `O=C(c1ccc2c(c1)OCO2)N1CCN(c2ccc(S(=O)(=O)C(F)F)cc2)CC1`: 27.7% (inactive); `O=C(c1ccc2c(c1)OCO2)N1CCN(c2ccc(S(=O)(=O)C(F)(F)F)cc2)CC1`: 24.8% (inactive).
Still for that read-out and setting: next, `CC(=O)c1ccc(N2CCN(C(=O)c3ccc(Cl)c(Cl)c3)CC2)cc1`: 55.4% (inactive); `O=C(c1ccc2c(c1)OCO2)N1CCN(c2ccc(C(F)(F)F)cc2)CC1`: 7.07% (inactive).
`CC(=O)c1ccc(N2CCN(C(=O)c3ccc4ocnc4c3)CC2)cc1`: the activity change, negative = cytotoxicity was 10.9% (inactive).
As to `CC(=O)c1ccc(N2CCN(C(=O)c3ccc4c(c3)OC(F)(F)O4)CC2)cc1`, the activity change, negative = cytotoxicity is 14.2% (inactive).
Turning to `CS(=O)(=O)c1ccc(N2CCN(C(=O)c3ccc4c(c3)OCO4)CC2)cc1`, the activity change, negative = cytotoxicity was -7.24% (inactive).
On to `O=C(c1ccc2c(c1)OCO2)N1CCN(c2ccc(OC(F)(F)F)cc2)CC1`, for which the activity change, negative = cytotoxicity is -0.808% (inactive).
Still for that read-out and setting: then `CC(=O)c1ccc(N2CCN(C(=O)c3cc4c(cn3)OCO4)CC2)cc1`, with -2.87% (inactive); and `CC(=O)c1ccc(N2CCN(C(=O)c3cccc4c3OCO4)CC2)cc1`, with 14.1% (inactive); and `CC(=O)c1ccc(N2CCN(C(=O)c3ccc4c(c3)OCO4)CC2)cc1`, with -3.33% (inactive).
`CC(=O)c1ccc(N2CCN(C(=O)c3ccc4snnc4c3)CC2)cc1`: the activity change, negative = cytotoxicity is 19.1% (inactive).
The same measure, in the same setting: next, `CC(=O)c1ccc(N2CCCN(C(=O)c3ccc4c(c3)OCO4)CC2)cc1`: 11.7% (inactive).
On the same count and under the same terms, next, `CC(=O)c1ccc(N2CCN(C(=O)c3cc4c(cc3C)OCO4)CC2)cc1`: 31.1% (inactive); `CC(=O)c1ccc(N2CC3CC2CN3C(=O)c2ccc3c(c2)OCO3)cc1` (stereo not given): 36.6% (inactive); `CC(=O)c1ccc(N2CCN(C(=O)c3ccc4c(c3)OC(C)(C)O4)CC2)cc1`: -6.05% (inactive).
For `CC(=O)c1ccc(N2CCN(C(=O)c3cc4c(cc3Cl)OCO4)CC2)cc1`, the activity change, negative = cytotoxicity is 28.5% (inactive).

A further test has as its system HepG2 viability, CellTiter-Glo ATP luminescence, 72 h. The test is described as above.
Details: not given
The term AC50 denotes the concentration at which the activity in the assay is half-maximal. As to `CC(=O)c1ccc(N2CCN(S(=O)(=O)c3ccc4c(c3)OCO4)CC2)cc1`, the AC50 was > 52 µM (inactive).
